Reference: patent US20090028834A1 (priority 2007, published 2009)

Legend:
Assay type in all cases: cell-based
[1] = test system: Colony Forming Unit—Megakaryocyte (CFU-Mk); assay: Colony forming unit (CFU) assay, human bone marrow cells; conditions: for effect of receptor antagonist on substance P-enhanced platelet colony formation: antagonist in the presence of substance P
Text: (§1) This study examined the formation of three different progenitor cell populations, erythrocytes, platelets and granulocytes/macrophages.
(§2) Bone marrow aspirates were obtained from three healthy donors between 18 and 35 years of age following appropriate guidelines and protocols. Bone marrow mononuclear cells were isolated using a Ficoll-Hypaque density gradient, separating red blood cells from the others. Cells from each donor were processed independently and used for setting up individual experiments to assess the effects, if any, of donor variability.
(§3) Cells (1×10^5) were plated in duplicate onto 35 mm tissue culture plates for each condition tested and set up as described in Rameshwar et al. 1993, Blood. 81:2, 391-398. Erythroid and granulocyte/macrophage cultures were plated using methylcellulose and megakaryocyte cultures (platelet precursors) used a collagen-based support (StemCell Technologies, Vancouver, Canada, catalogue #04973). […] CP 99,994 (Pfizer) was used as a neurokinin-1 receptor antagonist and SR 48968 (Sanofi) was used as a neurokinin-2 receptor antagonist.
Cultures were set up with limited cytokines and growth factors which would promote differentiation of one progenitor per plate.
Each compound was dissolved in endotoxin-free water to a final concentration of 0.1 mM. After reconstitution, the solutions were aliquoted into siliconized microcentrifuge tubes and exposed to nitrogen gas, eliminating oxygen in the head space of the enclosure. All aliquots were stored at −20° C. until use and used within one month of reconstitution. See, Rameshwar, et al. 1997, J. Immunol.
Cultures were incubated at 37° C. with 5% CO2 for approximately 14 days, after which colonies were manually enumerated using a microscope. To count megakaryocyte colonies, the cells were fixed followed by a staining procedure using the following antibodies: primary—mouse anti-human GP11b/111a, isotype control—mouse anti-trinitrophenyl, secondary—biotin-conjugated goat anti-mouse IgG, detection—avidin-alkaline phosphatase conjugate. […]

[2] = test system: human bone marrow mononuclear cell (MNC) fraction; assay: CFC assay, multi-donor study, all seven cell populations (overall toxicity); conditions: three donors, highest doses (up to 1 nM)
Method: Compound was dissolved in 1 ml of Iscove's Modified Dulbecco's Medium (IMDM) and a serial dose response was prepared in single log doses so that the final dose in culture ranged from 1 nanoMolar (nM) to 1×10^−16 M. All working dilutions were performed in IMDM. Cell cultures from each donor were started at different times and a fresh solution of Homspera® was prepared for each individual experiment.
Starting with human bone marrow aspirate, the mononuclear cell (MNC) fraction from each aspirate was separated from whole bone marrow using Ficoll-Paque density gradient centrifugation.
The colony-forming cell (CFC) assay was performed using optimal growth factor/cytokine concentrations. The reagents and conditions were similar to those used in Example 3, except that no ATP measurements were performed. The MNC fraction from each bone marrow donor was dissolved in IMDM and cultured at a concentration of 5,000 cells/well in a Culture Master Mix (HemoGenix, Inc., Colorado Springs, Colo.). […]
The mean, standard deviation and percent coefficient of variation was calculated for all groups, transposed and plotted as a function of donor. The percent from control values were calculated and also plotted as a function of donor. […]

[3] = test system: Colony Forming Unit—Erythroid (CFU-E); assay: Colony forming unit (CFU) assay, human bone marrow cells; conditions: about 14 days; FIG. 2
Text: as §1, §2, §3
(§4) The cytokines and growth factors added to Blast Forming Unit—Erythroid (BFU-E) cultures, Colony Forming Unit—Erythroid (CFU-E) cultures, and Colony Forming Unit—Granulocyte/Macrophage (CFU-GM) cultures were added as defined by proliferative units. […]

[4] = test system: Blast Forming Unit—Erythroid (BFU-E); assay: as above; conditions: about 14 days; three donors; FIG. 1
Text: as §1, §2, §3, §4

In the case of `COc1ccccc1CN[C@H]1CCCN[C@H]1c1ccccc1` [CP-99,994], the “effect of receptor antagonist on substance P-enhanced platelet colony formation” value [1] is reported as “blocks the stimulatory activity of substance P”.
`CC(C)C[C@H](NC(=O)CN(C)C(=O)[C@H](Cc1ccccc1)NC(=O)[C@H](Cc1ccccc1)NC(=O)[C@H](CCC(N)=O)NC(=O)[C@H](CCC(N)=O)NC(=O)[C@@H]1CCCN1C(=O)[C@H](CCCCN)NC(=O)[C@@H]1CCCN1C(=O)[C@@H](N)CCCNC(=N)N)C(=O)N[C@@H](CCS(C)(=O)=O)C(N)=O` [Homspera®, [Sar^9, Met(O)2^11]-substance P] was tested, and the toxicity [2] was “no apparent toxicity”.
In the case of `CC(=O)NC1(c2ccccc2)CCN(CC[C@H](CN(C)C(=O)c2ccccc2)c2ccc(Cl)c(Cl)c2)CC1` [SR48968], the “effect of receptor antagonist on substance P-enhanced platelet colony formation” value [1] is reported as “no effect on substance P activity”.
With “Arg Pro Lys Pro Gln Gln Phe Phe Gly Leu Met [substance P]” the “concentration at which effective on platelet precursors” value [1] was 10^−8 M, the “CFU-E colony formation, enhancement from control values” [3] was “about 70%” and the “BFU-E colony formation, increase from control values” [4] was ~60%.
